Data on 13 substances can be found in patent publication US20050209157A1, “Short bioactive peptides and methods for their use” (priority 2001, published 2005).

No end group written: not given here.

One test deals with S. typhimurium 14028S. The class given is cell-based, Salmonella typhimurium. The conditions noted are these: Table 14.
The next test concerns P. aeruginosa H374. The class given is cell-based, Pseudomonas aeruginosa. To be noted: Table 14; in µg/mL.
Another test relates to Candida albicans 105. The class given is cell-based. The conditions noted are these: Table 15; in µg/mL.
For the next test, the system named is S. aureus (MRSA). It counts as cell-based, Staphylococcus aureus. To be noted: Table 15, strain SAP0017; in µg/mL.
Another test has as its system S. epidermidis C621. The class given is cell-based, Staphylococcus epidermidis. To be noted: Table 15.
Test [1] deals with Pseudomonas aeruginosa H187. The class given is cell-based. The conditions noted are these: Table 15; in µg/mL.
The test system of a further test is E. coli UB1005. It counts as cell-based, Escherichia coli. To be noted: Table 14.

FAFGKGIGKVGKKLL-NH2 [P133 (95)] gave an MIC S. typhimurium 14028S against S. typhimurium 14028S of more than 128 mg/L. Also, the “MIC P. aeruginosa H374” value against P. aeruginosa H374 is more than 128. Also, the “MIC C. albicans 105” value against Candida albicans 105 is reported as more than 128. Moreover, in the test with S. aureus (MRSA), the “MIC S. aureus SAP0017” value was more than 128. The same substance gave an MIC S. epidermidis C621 in the test on S. epidermidis C621 of more than 128 mg/L. For the same substance, the “MIC P. aeruginosa H187” value in test [1] is on record as more than 128. In the test on E. coli UB1005, this substance gave an MIC E. coli UB1005 of more than 128 mg/L.
In turn, KWKLF-NH2 [P131 (93)] registered an MIC S. typhimurium 14028S in the test on S. typhimurium 14028S of more than 128 mg/L. Further, the “MIC P. aeruginosa H374” value against P. aeruginosa H374 was more than 128. Further, the “MIC C. albicans 105” value against Candida albicans 105 was more than 128. Further, in the test on S. aureus (MRSA), the “MIC S. aureus SAP0017” value was more than 128. Further, the MIC S. epidermidis C621 in the test with S. epidermidis C621 was more than 128 mg/L. Also, the “MIC P. aeruginosa H187” value in test [1] is on record as more than 128. In the test with E. coli UB1005, this substance gave an MIC E. coli UB1005 of more than 128 mg/L.
Take FAFGKGIGKIGKKGL-NH2 [P138 (100)]: the MIC S. typhimurium 14028S against S. typhimurium 14028S is more than 128 mg/L. The “MIC P. aeruginosa H374” value in the test on P. aeruginosa H374 was more than 128. Further, the “MIC C. albicans 105” value with Candida albicans 105 was more than 128. Besides, in the test on S. aureus (MRSA), the “MIC S. aureus SAP0017” value is listed as more than 128. This substance returned an MIC S. epidermidis C621 against S. epidermidis C621 of more than 128 mg/L. Moreover, the “MIC P. aeruginosa H187” value in test [1] is more than 128. The substance also displayed an MIC E. coli UB1005 in the test on E. coli UB1005 of more than 128 mg/L.
Turning to FALKALKK-NH2 [P145 (107)], the MIC S. typhimurium 14028S against S. typhimurium 14028S is more than 128 mg/L. Moreover, in the test on P. aeruginosa H374, the “MIC P. aeruginosa H374” value is listed as more than 128. Besides, the “MIC C. albicans 105” value against Candida albicans 105 is given as 64. Besides, the “MIC S. aureus SAP0017” value with S. aureus (MRSA) is listed as more than 128. The substance also returned an MIC S. epidermidis C621 in the test with S. epidermidis C621 of more than 128 mg/L. For the same substance, the “MIC P. aeruginosa H187” value in test [1] is listed as more than 128. In addition, the MIC E. coli UB1005 against E. coli UB1005 is more than 128 mg/L.
Regarding KWKLAKKALALL-NH2 [P142 (104)], the MIC S. typhimurium 14028S against S. typhimurium 14028S turned out to be 128 mg/L. The “MIC P. aeruginosa H374” value against P. aeruginosa H374 was more than 128. Also, the “MIC C. albicans 105” value against Candida albicans 105 was determined as 64. The “MIC S. aureus SAP0017” value against S. aureus (MRSA) is recorded as more than 128. Also, in the test on S. epidermidis C621, the MIC S. epidermidis C621 was found to be 128 mg/L. Further, the “MIC P. aeruginosa H187” value in test [1] was more than 128. In the test on E. coli UB1005, the MIC E. coli UB1005 came to 64 mg/L.
YAKLLAKLAKKAL-NH2 [P155 (117)]: the MIC S. typhimurium 14028S with S. typhimurium 14028S was more than 128 mg/L. Further, in the test with P. aeruginosa H374, the “MIC P. aeruginosa H374” value is more than 128. Moreover, the “MIC C. albicans 105” value in the test with Candida albicans 105 is more than 128. In the test on S. aureus (MRSA), the “MIC S. aureus SAP0017” value is on record as more than 128. Moreover, the MIC S. epidermidis C621 against S. epidermidis C621 was more than 128 mg/L. Besides, in test [1], the “MIC P. aeruginosa H187” value is listed as more than 128. For the same substance, the MIC E. coli UB1005 against E. coli UB1005 was more than 128 mg/L.
With FAKLA-NH2 [P128 (90)], in the test with S. typhimurium 14028S, the MIC S. typhimurium 14028S was more than 128 mg/L. Also, the “MIC P. aeruginosa H374” value in the test with P. aeruginosa H374 is more than 128. Further, in the test on Candida albicans 105, the “MIC C. albicans 105” value was 128. Also, the “MIC S. aureus SAP0017” value in the test on S. aureus (MRSA) was more than 128. Besides, the MIC S. epidermidis C621 in the test on S. epidermidis C621 worked out at 128 mg/L. Moreover, the “MIC P. aeruginosa H187” value in test [1] was more than 128. Besides, the MIC E. coli UB1005 in the test with E. coli UB1005 stood at 128 mg/L.
Turning to FAKKLAKALL-NH2 [P58 (38)], the MIC S. typhimurium 14028S in the test on S. typhimurium 14028S was more than 128 mg/L. For the same substance, the “MIC P. aeruginosa H374” value against P. aeruginosa H374 is more than 128. The “MIC C. albicans 105” value with Candida albicans 105 worked out at 64. Besides, in the test with S. aureus (MRSA), the “MIC S. aureus SAP0017” value is recorded as more than 128. This substance came in with an MIC S. epidermidis C621 with S. epidermidis C621 of more than 128 mg/L. Besides, the “MIC P. aeruginosa H187” value in test [1] is reported as more than 128. In the test on E. coli UB1005, this substance registered an MIC E. coli UB1005 of more than 128 mg/L.
As for FAKLLAKLAKAKL-NH2 [P65 (44)], the MIC S. typhimurium 14028S against S. typhimurium 14028S was more than 128 mg/L. For the same substance, in the test with P. aeruginosa H374, the “MIC P. aeruginosa H374” value is listed as 64. The “MIC C. albicans 105” value against Candida albicans 105 was 64. Also, in the test with S. aureus (MRSA), the “MIC S. aureus SAP0017” value is recorded as more than 128. For the same substance, the MIC S. epidermidis C621 in the test with S. epidermidis C621 is more than 128 mg/L. Further, the “MIC P. aeruginosa H187” value in test [1] is reported as more than 128. In the test with E. coli UB1005, this substance yielded an MIC E. coli UB1005 of 128 mg/L.
In the case of FAKLLAKLAKK-NH2 [P151 (113)], the MIC S. typhimurium 14028S against S. typhimurium 14028S was more than 128 mg/L. In the test on P. aeruginosa H374, the “MIC P. aeruginosa H374” value is on record as 128. Moreover, the “MIC C. albicans 105” value in the test with Candida albicans 105 came out at 128. Besides, in the test on S. aureus (MRSA), the “MIC S. aureus SAP0017” value is more than 128. This substance also gave an MIC S. epidermidis C621 in the test on S. epidermidis C621 of more than 128 mg/L. Besides, in test [1], the “MIC P. aeruginosa H187” value is reported as more than 128. In addition, the MIC E. coli UB1005 with E. coli UB1005 was more than 128 mg/L.
For FAKLFAKLAKKFAL-NH2 [P121 (83)], the MIC S. typhimurium 14028S against S. typhimurium 14028S is more than 128 mg/L. The “MIC P. aeruginosa H374” value against P. aeruginosa H374 is on record as more than 128. Besides, the “MIC C. albicans 105” value with Candida albicans 105 is 64. Moreover, the “MIC S. aureus SAP0017” value against S. aureus (MRSA) is more than 128. The MIC S. epidermidis C621 with S. epidermidis C621 is more than 128 mg/L. Further, the “MIC P. aeruginosa H187” value in test [1] is more than 128. In the test with E. coli UB1005, this substance returned an MIC E. coli UB1005 of more than 128 mg/L.
As for KAKLAKKALAKLL-NH2 [P149 (111)], in the test on S. typhimurium 14028S, the MIC S. typhimurium 14028S was more than 128 mg/L. For the same substance, the “MIC P. aeruginosa H374” value against P. aeruginosa H374 stood at 128. In addition, the “MIC C. albicans 105” value with Candida albicans 105 was determined as 128. In the test on S. aureus (MRSA), the “MIC S. aureus SAP0017” value is given as more than 128. The same substance gave an MIC S. epidermidis C621 in the test on S. epidermidis C621 of more than 128 mg/L. Besides, the “MIC P. aeruginosa H187” value in test [1] was more than 128. The same substance displayed an MIC E. coli UB1005 against E. coli UB1005 of 32 mg/L.
For the substance FGKGIGKVGKKLL-NH2 [P132 (94)], the MIC S. typhimurium 14028S against S. typhimurium 14028S is more than 128 mg/L. Also, the “MIC P. aeruginosa H374” value in the test with P. aeruginosa H374 is reported as more than 128. Also, the “MIC C. albicans 105” value against Candida albicans 105 was 128. Further, the “MIC S. aureus SAP0017” value against S. aureus (MRSA) is more than 128. Further, the MIC S. epidermidis C621 with S. epidermidis C621 was more than 128 mg/L. In addition, the “MIC P. aeruginosa H187” value in test [1] is listed as more than 128. This substance came in with an MIC E. coli UB1005 against E. coli UB1005 of 128 mg/L.
